In patent publication US4924002A, “Novel process for the preparation of pyrazoles from isoxazoles” (Warner-Lambert Company, priority 1989, dated 1990):

What was measured:
5-lipoxygenase = target: T1, 5-lipoxygenase (Rattus norvegicus, UniProt P12527); experiment: ARBL RBL-1 whole cell 5-lipoxygenase assay (LTB4 by RIA); format: cell-based; details: RBL-1 intact cells, 5 μM A23187, LTB4
T1 construct: host or cells: RBL-1 (rat basophilic leukemia)
T1 sequence (P12527 1-673): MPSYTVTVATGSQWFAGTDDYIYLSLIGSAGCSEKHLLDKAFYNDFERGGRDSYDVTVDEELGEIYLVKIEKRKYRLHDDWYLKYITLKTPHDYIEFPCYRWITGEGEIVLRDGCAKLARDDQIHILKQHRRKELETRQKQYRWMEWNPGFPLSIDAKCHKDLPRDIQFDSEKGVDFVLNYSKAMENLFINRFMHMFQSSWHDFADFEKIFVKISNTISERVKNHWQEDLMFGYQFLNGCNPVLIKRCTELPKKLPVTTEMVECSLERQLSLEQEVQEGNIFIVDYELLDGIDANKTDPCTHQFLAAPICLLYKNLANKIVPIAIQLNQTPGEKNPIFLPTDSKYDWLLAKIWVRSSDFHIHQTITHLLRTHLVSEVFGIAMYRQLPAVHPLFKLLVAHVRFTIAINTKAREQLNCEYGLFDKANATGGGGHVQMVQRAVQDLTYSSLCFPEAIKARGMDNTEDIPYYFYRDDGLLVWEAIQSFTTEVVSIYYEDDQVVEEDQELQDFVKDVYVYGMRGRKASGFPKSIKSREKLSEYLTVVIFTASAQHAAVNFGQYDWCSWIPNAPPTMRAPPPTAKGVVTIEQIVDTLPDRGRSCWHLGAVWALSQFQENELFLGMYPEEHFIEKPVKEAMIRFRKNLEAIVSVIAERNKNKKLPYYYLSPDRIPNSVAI
Protocol: (§1) ARBL/ARBC Whole Cell 5-Lipoxygenase and Cyclooxygenase Assays
(§2) The rat basophilic leukemia cell line (RBL-1) was obtained from the American Type Culture Collection (Rockville, Md.).
(§3) Radioimmuno assay (RIA) kits of LTB4 and PGF2α were obtained from Amersham (Arlington Heights, Ill.) and Seragen (Boston, Mass.) respectively.
(§4) All tissue culture media were obtained from GIBCO (Grand Island, N.Y.).
(§5) RBL-1 cells were grown in culture (suspension) in Eagle's minimum essential medium supplemented with 12% fetal bovine serum and 1:100 antibiotic-antimycotic mixture at 37° C. in an incubator supplied with air-5% carbon dioxide. Cells were harvested by centrifugation. They were washed with cold phosphate buffered saline pH 7.4 (PBS; NaCl, 7.1 g; Na2 HPO4, 1.15 g; KH2 PO4, 0.2 g; and KCl, 0.2 g/L). […] Calcium ionophore A23187 (5 μM) was added and cells were incubated for seven minutes at 37° C. The reaction was stopped by chilling the tubes in ice for ten minutes. Cells were separated by centrifugation and the supernatant was stored at -20°. Aliquots (100 μl) were analyzed for LTB4 and PGF2α using radioimmuno assay kits as provided by the supplier.

cyclooxygenase = target: T2, cyclooxygenase (Rattus norvegicus, UniProt Q63921); experiment: ARBC RBL-1 whole cell cyclooxygenase assay (PGF2α by RIA); format: cell-based; details: RBL-1 intact cells, 5 μM A23187, PGF2α
T2 construct: host or cells: RBL-1 (rat basophilic leukemia)
T2 sequence (Q63921 27-602): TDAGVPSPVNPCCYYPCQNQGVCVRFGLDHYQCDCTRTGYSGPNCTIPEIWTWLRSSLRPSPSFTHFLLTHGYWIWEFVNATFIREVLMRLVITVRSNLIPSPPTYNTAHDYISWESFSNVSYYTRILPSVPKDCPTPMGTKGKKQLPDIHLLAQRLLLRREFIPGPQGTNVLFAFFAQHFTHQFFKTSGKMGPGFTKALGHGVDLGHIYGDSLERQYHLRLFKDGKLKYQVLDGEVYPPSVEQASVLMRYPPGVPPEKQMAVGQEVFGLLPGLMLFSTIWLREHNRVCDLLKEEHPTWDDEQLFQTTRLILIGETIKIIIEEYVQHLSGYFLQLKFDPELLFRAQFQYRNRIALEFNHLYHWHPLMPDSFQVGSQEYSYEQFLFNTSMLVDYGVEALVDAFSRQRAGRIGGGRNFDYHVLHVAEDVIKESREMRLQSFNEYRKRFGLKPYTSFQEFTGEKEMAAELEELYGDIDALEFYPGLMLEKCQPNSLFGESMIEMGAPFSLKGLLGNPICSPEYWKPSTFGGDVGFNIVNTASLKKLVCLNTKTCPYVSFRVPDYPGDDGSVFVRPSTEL
Protocol: as §1, §2, §3, §4, §5

[1] = Ultraviolet absorbing properties compared with p-aminobenzoic acid; format: physicochemical; parameters: UV max: unit not given here; details: for α: ultraviolet absorption
Protocol: The ultraviolet absorbing properties of the compounds of the present invention is generally shown by a comparison with p-aminobenzoic acid which is the active ingredient in most commercial sunscreens. Such properties are within the ultraviolet absorbing ranges of […] range critical to effectiveness. A representative compound of the invention is compared to p-aminobenzoic acid in the following Table.

IC50 (5-lipoxygenase)	IC50 (cyclooxygenase)	UV max [1]	α [1]	SMILES
10 µM	2 µM			COC(=O)C(=Cc1cc(C(C)(C)C)c(O)c(C(C)(C)C)c1)c1cc(C)no1 [Example 46, 5-[α-Carbomethoxy-β-(4'-hydroxy-3',5'-bis(1,1-dimethylethyl)phenyl)ethenyl]-3-methylisoxazole]
5.7 µM	14.5 µM			Cc1cc(C=Cc2cc(Br)c(O)c(Br)c2)n[nH]1 [Example 58, 3-[β-(4'-Hydroxy-3',5'-dibromophenyl)ethenyl]-5-methylpyrazole]
		292	111.1	COc1cc(C=Cc2cc(C)[nH]n2)ccc1O [Example 5, 3-[β-(4'-Hydroxy-3'-methoxyphenyl)ethenyl]-5-methyl-pyrazole]
			132.2	Nc1ccc(C(=O)O)cc1 [p-aminobenzoic acid, reference compound]
3.3 µM	4.2 µM			Cc1cc(C=Cc2cc(Br)c(O)c(Br)c2)no1 [Example 54B]
